Reference: patent US11530193B2, “Kinase inhibitors” (The University of Manchester, priority 2018, dated 2022)
Where a name gives a salt, the structure may show the parent alone.

Biological target: CAMK1D (Homo sapiens (Human), UniProt Q8IU85)
Assay: Tm-Shift assay (thermal melting, SYPRO Orange);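 for SYK Tm-Shift: recombinant His-tagged protein made in Sf9 insect cells by baculovirus, in HEPES NaCl buffer, heated stepwise with fluorescence recorded at every temperature step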
Format: binding
Settings: read-out: CAMK1d Tm-Shift

Sequence of CAMK1D (Q8IU85 1-333): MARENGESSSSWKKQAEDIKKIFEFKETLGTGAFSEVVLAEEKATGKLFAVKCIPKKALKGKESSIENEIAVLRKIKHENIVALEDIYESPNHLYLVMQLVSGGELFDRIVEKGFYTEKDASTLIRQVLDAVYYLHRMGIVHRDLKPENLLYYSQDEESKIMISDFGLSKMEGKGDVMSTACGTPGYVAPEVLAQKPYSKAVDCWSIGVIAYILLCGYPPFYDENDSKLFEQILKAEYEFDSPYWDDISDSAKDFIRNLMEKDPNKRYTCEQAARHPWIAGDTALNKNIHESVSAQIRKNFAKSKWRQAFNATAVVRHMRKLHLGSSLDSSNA

ΔTm at 10 µM [°C]	SMILES
10.6	CC(C)(C)c1cc(Nc2nc(N3CCC[C@@H](N)C3)ncc2C(N)=O)cc(C(C)(C)C)c1 [Example 7, (R)-2-(3-aminopiperidin-1-yl)-4-((3,5-di-tert-butylphenyl)amino)pyrimidine-5-carboxamide hydrochloride]

Biological target: SYK (Homo sapiens (Human), UniProt P43405)
Assay: Tm-Shift assay (thermal melting, SYPRO Orange);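 for SYK Tm-Shift: recombinant His-tagged protein made in Sf9 insect cells by baculovirus, in HEPES NaCl buffer, heated stepwise with fluorescence recorded at every temperature step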
Format: binding
Settings: not given

SMILES	SYK Tm-Shift [°C]
CC(C)(O)C1CN(C(=O)c2cccc(Nc3nc(N4CCC[C@H](N)C4)ncc3C(N)=O)c2)C1.Cl [Example 37, (S)-2-(3-aminopiperidin-1-yl)-4-((3-(3-(2-hydroxypropan-2-yl)azetidine-1-carbonyl)phenyl)amino)pyrimidine-5-carboxamide hydrochloride]	5.0
C[C@@H]1COC[C@H](C)N1C(=O)c1cccc(Nc2nc(N3CCC[C@H](N)C3)ncc2C(N)=O)c1.Cl [Example 33, 2-((S)-3-aminopiperidin-1-yl)-4-((3-((3S,5R)-3,5-dimethylmorpholine-4-carbonyl)phenyl)amino)pyrimidine-5-carboxamide hydrochloride]	0.5
COC[C@H]1CCCN1C(=O)c1cccc(Nc2nc(N3CCC[C@H](N)C3)ncc2C(N)=O)c1.Cl [Example 36, 2-((S)-3-aminopiperidin-1-yl)-4-((3-((R)-2-(methoxymethyl)pyrrolidine-1-carbonyl)phenyl)amino)pyrimidine-5-carboxamide hydrochloride]	1.4
CN1CCN(C(=O)c2cccc(Nc3nc(N4CCC[C@H](N)C4)ncc3C(N)=O)c2)CC1=O.Cl [Example 38, (S)-2-(3-aminopiperidin-1-yl)-4-((3-(4-methyl-3-oxopiperazine-1-carbonyl)phenyl)amino)pyrimidine-5-carboxamide hydrochloride]	3.4
CC(C)(C)c1cc(Nc2nc(N3C[C@H](N)C[C@H](N)C3)ncc2C(N)=O)cc(C(C)(C)C)c1.Cl.Cl [Example 11, 4-((3,5-di-tert-butylphenyl)amino)-2-((3S,5R)-3,5-diaminopiperidin-1-yl)pyrimidine-5-carboxamide dihydrochloride]	−0.5

Same assay, conditions: compound 10 μM, protein 2 μM; ΔTm obs vs protein without ligand; triplicate

SYK Tm-Shift [°C]	SMILES
0.3	Cc1cccc(C)c1-c1cc(Nc2nc(N3CCC[C@H](N)C3)ncc2C(N)=O)cc(C(=O)N2CCOCC2)c1 [Example 20, (S)-2-(3-aminopiperidin-1-yl)-4-((2′,6′-dimethyl-5-(morpholine-4-carbonyl)-[1,1′-biphenyl]-3-yl)amino)pyrimidine-5-carboxamide]
0.9	CC(C)(O)c1cc(Nc2nc(N3CCC[C@H](N)C3)ncc2C(N)=O)cc(C(C)(C)O)c1 [Example 90, (S)-2-(3-aminopiperidin-1-yl)-4-((3,5-bis(2-hydroxypropan-2-yl)phenyl)amino) pyrimidi-ne-5-carboxamide]
0.5	CC(C)(C#N)c1cc(Nc2nc(N3CCC[C@H](N)C3)ncc2C(N)=O)cc(C(=O)N2CCOCC2)c1 [Example 48, (S)-2-(3-aminopiperidin-1-yl)-4-((3-(2-cyanopropane-2-yl)-5-(morpholine-4-carbonyl)phenyl)amino)pyrimidine-5-carboxamide]
3.4	CC(C)(O)c1cc(Nc2nc(N3CCC[C@H](N)C3)ncc2C(N)=O)cc(C(F)(F)F)c1 [Example 89, (S)-2-(3-aminopiperidin-1-yl)-4-((3-(2-hydroxypropan-2-yl)-5-(trifluoromethyl)phenyl)amino)pyrimidine-5-carboxamide]
4.3	COc1ccc2c(c1)CN(C(=O)c1cccc(Nc3nc(N4CCC[C@H](N)C4)ncc3C(N)=O)c1)C2 [Example 35, (S)-2-(3-aminopiperidin-1-yl)-4-((3-(5-methoxyisoindoline-2-carbonyl)phenyl)amino)pyrimidine-5-carboxamide]
3.1	C[C@@H]1CN(C(=O)c2cccc(Nc3nc(N4CCC[C@H](N)C4)ncc3C(N)=O)c2)C[C@H](C)O1 [Example 39, 2-((S)-3-aminopiperidin-1-yl)-4-((3-((2R,6S)-2,6-dimethylmorpholine-4-carbonyl)phenyl)amino)pyrimidine-5-carboxamide]
0.3	CC1(C)C(=O)Nc2ccc(Nc3nc(N4CCC[C@H](N)C4)ncc3C(N)=O)cc21 [Example 65, (S)-2-(3-aminopiperidin-1-yl)-4-((3,3-dimethyl-2-oxoindolin-5-yl)amino)pyrimidine-5-carboxamide]
0.3	NC(=O)c1cnc(N2CCC[C@H](N)C2)nc1Nc1cc(C(=O)N2CCOCC2)cc(-c2ccccc2)c1 [Example 21, (S)-2-(3-aminopiperidin-1-yl)-4-((5-(morpholine-4-carbonyl)-[1,1′-biphenyl]-3-yl)amino)pyrimidine-5-carboxamide]
6.5	Cc1ccccc1-c1cccc(Nc2nc(N3CCC[C@H](N)C3)ncc2C(N)=O)c1 [Example 10, (S)-2-(3-aminopiperidin-1-yl)-4-((2′-methyl-[1,1′-biphenyl]-3-yl)amino)pyrimidine-5-carboxamide]
1.4	NC(=O)c1cnc(N2CCC[C@H](N)C2)nc1Nc1cccc(C(=O)N2CCOCC2)c1 [Example 24, (S)-2-(3-aminopiperidin-1-yl)-4-((3-(morpholine-4-carbonyl)phenyl)amino)pyrimidine-5-carboxamide]
0.7	CC(C)(C#N)c1cc(Nc2nc(N3CCC[C@H](N)C3)ncc2C(N)=O)cc(C(=O)N2CCCC2)c1 [Example 47, (S)-2-(3-aminopiperidin-1-yl)-4-((3-(2-cyanopropan-2-yl)-5-(pyrrolidine-1-carbonyl)phenyl)amino)pyrimidine-5-carboxamide]
3.2	CC(C)(C)c1cc(Nc2nc(N3CCC[C@H](N)C3)ncc2C(N)=O)ccn1 [Example 8, (S)-2-(3-aminopiperidin-1-yl)-4-((2-(tert-butyl)pyridin-4-yl)amino)pyrimidine-5-carboxamide]
1.2	NC(=O)c1cnc(N2CCC[C@H](N)C2)nc1Nc1cc(C(=O)N2CCOCC2)cc(C(F)(F)F)c1 [Example 43, (S)-2-(3-aminopiperidin-1-yl)-4-((3-(morpholine-4-carbonyl)-5-(trifluoromethyl)phenyl)amino)pyrimidine-5-carboxamide]
0.5	CN(C)C(=O)c1cc(Nc2nc(N3CCC[C@H](N)C3)ncc2C(N)=O)cc(C(C)(C)C#N)c1 [Example 46, (S)-2-(3-aminopiperidin-1-yl)-4-((3-(2-cyanopropan-2-yl)-5-(dimethylcarbamoyl)phenyl)amino)pyrimidine-5-carboxamide]
1.8	NC(=O)c1cnc(N2CCC[C@H](N)C2)nc1Nc1cccc(C(=O)N2CCCCC2)c1 [Example 26, (S)-2-(3-aminopiperidin-1-yl)-4-((3-(piperidine-1-carbonyl)phenyl)amino)pyrimidine-5-carboxamide]
1.6	CN(C)C(=O)c1cccc(Nc2nc(N3CCC[C@H](N)C3)ncc2C(N)=O)c1 [Example 23, (S)-2-(3-aminopiperidin-1-yl)-4-((3-(dimethylcarbamoyl)phenyl)amino)pyrimidine-5-carboxamide]
8.2	NC(=O)c1cnc(N2CCC[C@H](N)C2)nc1Nc1cc(C2CC2)cc(C2CC2)c1 [Example 53, (S)-2-(3-aminopiperidin-1-yl)-4-((3,5-dicyclopropylphenyl)amino)pyrimidine-5-carboxamide]
